Here are results for 22 compounds from US5378690A, “New renin-inhibitory oligopeptides, their preparation and their use” (Sankyo Company, Limited, priority 1986, dated 1995).

The assay has as its target T1, human renin (Homo sapiens, UniProt P00797).
T1 sequence (P00797 67-406): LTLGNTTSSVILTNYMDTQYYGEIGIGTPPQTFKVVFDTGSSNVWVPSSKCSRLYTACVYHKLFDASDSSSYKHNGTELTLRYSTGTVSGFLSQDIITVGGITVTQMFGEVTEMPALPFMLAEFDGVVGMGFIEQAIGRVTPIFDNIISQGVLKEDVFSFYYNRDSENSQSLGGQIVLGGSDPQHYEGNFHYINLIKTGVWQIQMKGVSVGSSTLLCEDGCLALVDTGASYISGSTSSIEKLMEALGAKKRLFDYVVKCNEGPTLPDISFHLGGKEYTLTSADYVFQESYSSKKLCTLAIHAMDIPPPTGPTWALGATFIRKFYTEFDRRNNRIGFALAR
In words: Inhibition of renin activity. To be noted: 1×10^-6 M of the test compound, sheep angiotensinogen, pH 7.3, 10 minutes at 37° C., mean of 3 or 4 experiments. It counts as biochemical. As to the method: The ability of various compounds of the invention to inhibit the activity of renin was determined according to the following method, which follows essentially the procedure of Kokubu et al. [Hypertension, 5, 191-197 (1983)].
Specifically, each test compound was dissolved in 60% v/v aqueous ethanol. Human renin activity in the presence and absence of each compound was measured using sheep angiotensinogen. The total volume of 1 ml of assay mixture contained 0.1 mole/litre phosphate buffer (pH 7.3), human renin (equivalent to 0.5 ng angiotensin I per ml per minute), sheep angiotensinogen (equivalent to 200 ng angiotensin I) 1×10^-6 M of the test compound, 6% v/v ethanol and angiotensinase inhibitors (10 mmole/litre sodium ethylenediaminetetraacetate and 3.4 mmole/litre 8-hydroxyquinoline). The mixture was allowed to react for 10 minutes at 37° C., and then the reaction was stopped by placing the reaction tube in a boiling water bath for 5 minutes. The mixture was then centrifuged and the supernatant (0.05-0.1 ml) was used to assay remaining angiotensin I.
An identical experiment was carried out, as a control, except that the test compound was omitted. From the values obtained were calculated the % inhibition of renin activity achieved by each test compound. The results are shown in the following Table 9, in which the compounds of the invention are identified by the numbers of the Examples given hereafter in which are described their preparation. The values given are the mean of 3 or 4 experiments.
Turning to `O=C(C[C@H](O)[C@H](CC1CCCCC1)NC(=O)C(Cc1cscn1)NC(=O)[C@@H](CC(=O)N1CCOCC1)Cc1cccc2ccccc12)NCCN1CCOCC1` (mixture of isomers) [Example 2, N-{N-[(2R)-3-Morpholinocarbonyl-2-(1-naphthylmethyl)propionyl]-3-(4-thiazolyl)-DL-alanyl}-cyclostatin-(2-morpholinoethyl)amide], the “Inhibitory Activity (%)” value came to 91.2%.

For `CC1CN(C(=O)C[C@@H](Cc2cccc3ccccc23)C(=O)NC(Cc2cscn2)C(=O)N[C@@H](CC2CCCCC2)[C@@H](O)CC(=O)NCCN2CCOCC2)CC(C)O1` (mixture of isomers) [Example 8, N-{N-[(2R)-2-(1-Naphthylmethyl)-3-(2,6-dimethylmorpholinocarbocyl)propionyl]-3-(4-thiazolyl)-DL-alanyl}-cyclostatin-(2-morpholinoethyl)amide], the “Inhibitory Activity (%)” value came out at 96.5%.

As for `O=C(C[C@H](O)[C@H](CC1CCCCC1)NC(=O)C(Cc1cscn1)NC(=O)[C@@H](CC(=O)N1CCCCC1)Cc1cccc2ccccc12)NCCN1CCOCC1` (mixture of isomers) [Example 11, N-{N-[(2R)-2-(1-Naphthylmethyl)-3-(piperidinocarbonyl)propionyl]-3-(4-thiazolyl)-DL-alanyl}-cyclostatin-(2-morpholinoethyl)amide], the “Inhibitory Activity (%)” value worked out at 96.9%.

As for `O=C(C[C@H](O)[C@H](CC1CCCCC1)NC(=O)C(Cc1cscn1)NC(=O)[C@@H](CC(=O)N1CCN(c2ccccc2)CC1)Cc1cccc2ccccc12)NCCN1CCOCC1` (mixture of isomers) [Example 15, N-{N-[(2R)-2-(1-Naphthylmethyl)-3-(4-phenyl-1-piperazinylcarbonyl)propionyl]-3-(4-thiazolyl)-DL-alanyl}-cyclostatin-(2-morpholinoethyl)amide], the “Inhibitory Activity (%)” value worked out at 96.3%.

Turning to `O=C(C[C@H](O)[C@H](CC1CCCCC1)NC(=O)C(Cc1cscn1)NC(=O)[C@H](Cc1cccc2ccccc12)NC(=O)CCCN1CCOCC1)NCCN1CCOCC1` (mixture of isomers) [Example 42, N-55 N-[N-(4-Morpholinobutyryl)-3-(1-naphthyl -L-alanyl]-3-(4-thiazolyl)-DL-alanyl}-cyclostatin-(2-morpholinoethyl)amide], the “Inhibitory Activity (%)” value was 96.7%.

As for `O=C(C[C@H](O)[C@H](CC1CCCCC1)NC(=O)C(Cc1cscn1)NC(=O)[C@H](Cc1cccc2ccccc12)NC(=O)CN1CCOCC1)NCCN1CCCC1` (mixture of isomers) [Example 43, N-{N-[N-Morpholinoacetyl-3-(1-naphthyl)-L-alanyl]-(4-thiazolyl)-DL-alanyl]-cyclostatin-2-(1-pyrrolidinylethyl)amide], the “Inhibitory Activity (%)” value turned out to be 91.2%.

As to `CCC(C)CNC(=O)C[C@H](O)[C@H](CC1CCCCC1)NC(=O)[C@H](Cc1cscn1)NC(=O)[C@H](Cc1cccc2ccccc12)NC(=O)CN1CCOCC1` (mixture of isomers) [Example 109], the “Inhibitory Activity (%)” value was 98.3%.

`O=C(C[C@H](O)[C@H](CC1CCCCC1)NC(=O)[C@H](Cc1ccno1)NC(=O)[C@@H](CC(=O)N1CCOCC1)Cc1cccc2ccccc12)NCCN1CCOCC1` [Example 3, N-{N-[(2R)-3-Morpholinocarbonyl-2-(1-naphthylmethyl)propionyl]-3-(5-isoxazolyl)-L-alanyl}-cyclostatin-(2-morpholinoethyl)amide]: the “Inhibitory Activity (%)” value was found to be 92.2%.

With `O=C(C[C@@H](Cc1cccc2ccccc12)C(=O)N[C@@H](Cc1cscn1)C(=O)N[C@@H](CC1CCCCC1)[C@@H](O)CC(=O)NCCN1CCOCC1)NCCc1ccccc1` [Example 13, N-{N-[(2R)-2-(1-Naphthylmethyl)-3-(phenethylcarbamoyl)propionyl]-3-(4-thiazolyl)-L-alanyl}-cyclostatin-(2-morpholinoethyl)amide], the “Inhibitory Activity (%)” value turned out to be 96.6%.

Regarding `CCC(C)[C@@H](CO)NC(=O)C[C@H](O)[C@H](CC1CCCCC1)NC(=O)[C@H](Cc1cscn1)NC(=O)[C@@H](CC(=O)N1CCOCC1)Cc1cccc2ccccc12` (stereo partly shown) [Example 31], the “Inhibitory Activity (%)” value is 98.2%.

`CCN(CC(=O)N[C@@H](Cc1cccc2ccccc12)C(=O)N[C@@H](Cc1cscn1)C(=O)N[C@@H](CC1CCCCC1)[C@@H](O)CC(=O)NCCN1CCOCC1)Cc1ccccc1` [Example 64, N-{N-[N-(N-Benzyl-N-ethylaminoacetyl)-3-(1-naphthyl)-L-alanyl]-3-(4-thiazolyl)-L-alanyl}-cyclostatin-(2-morpholinoethyl)amide]: the “Inhibitory Activity (%)” value came out at 97.5%.

On to `CC(C)N(CC(=O)N[C@@H](Cc1cccc2ccccc12)C(=O)N[C@@H](Cc1cscn1)C(=O)N[C@@H](CC1CCCCC1)[C@@H](O)CC(=O)NCCN1CCOCC1)Cc1ccccc1` [Example 65, N-{N-[N-(N-Benzyl-N-isopropylaminoacetyl)-3-(1-naphthyl)-L-alanyl]-3-(4-thiazolyl)-L-alanyl}-cyclostatin-(2-morpholinoethy)amide], for which the “Inhibitory Activity (%)” value came out at 97.4%.

As for `COc1ccccc1N1CCN(CC(=O)N[C@@H](Cc2cccc3ccccc23)C(=O)N[C@@H](Cc2cscn2)C(=O)N[C@@H](CC2CCCCC2)[C@@H](O)CC(=O)NCCN2CCOCC2)CC1` [Example 66, N-[N-{N-[4-(2-Methoxyphenyl)-1-piperazinyl]acetyl-3-(1-naphthyl)-L-alanyl}-3-(4-thiazolyl)-L-alanyl]-cyclostatin-(2-morpholinoethyl)amide], the “Inhibitory Activity (%)” value is on record as 95.7%.

As to `CC(C)C[C@H](NC(=O)[C@H](Cc1cccc2ccccc12)NC(=O)CN(C)Cc1ccccc1)C(=O)N[C@@H](CC1CCCCC1)[C@@H](O)CC(=O)NCCCN1CCCC1=O` [Example 73, N-{N-[N-(N-Benzyl-N-methylaminoacetyl)-3-(1-naphthyl)-L-alanyl]-L-leucyl}-cyclostatin-[3-(2-oxo-1-pyrrolidinyl)propyl]amide], the “Inhibitory Activity (%)” value worked out at 97.7%.

For `CC[C@H](C)CNC(=O)C[C@H](O)[C@H](CC1CCCCC1)NC(=O)[C@H](Cc1cscn1)NC(=O)[C@H](Cc1cccc2ccccc12)NC(=O)CN1CCOCC1` [Example 98, N-{N-[N-Morpholinoacetyl-3-(1-naphthyl)-L-alanyl]-3-(4-thiazolyl)-L-alanyl}-cyclostatin-[(S)-2-methylbutyl]amide], the “Inhibitory Activity (%)” value was 98.1%.

Turning to `CC[C@H](C)[C@@H](CN1CCOCC1)NC(=O)C[C@H](O)[C@H](CC1CCCCC1)NC(=O)[C@H](Cc1cscn1)NC(=O)[C@H](CC1CCCCC1)NC(=O)CN(C)Cc1ccccc1` [Example 100, N-{N-[N-(N-Benzyl-N-methylaminoacetyl)-3-cyclohexyl-L-alanyl]-3-(4-thiazolyl)-L-alanyl}-cyclostatin-[(1S,2S)-2-methyl-1-(morpholinomethyl)butyl]amide], the “Inhibitory Activity (%)” value is on record as 96.1%.

For the compound `CN(CC(=O)N[C@@H](CC1CCCCC1)C(=O)N[C@@H](Cc1cscn1)C(=O)N[C@@H](CC1CCCCC1)[C@@H](O)CC(=O)NCCN1CCOCC1)Cc1ccccc1` [Example 101, N-{N-[N-(N-Benzyl-N-methylaminoacetyl)-3-cyclohexyl-L-alanyl]-3-(4-thiazolyl)-L-alanyl}-cyclostatin-(2-morpholinoethyl)amide], the “Inhibitory Activity (%)” value is 94.9%.

With `CCCNC(=O)C[C@H](O)[C@H](CC1CCCCC1)NC(=O)[C@H](Cc1cscn1)NC(=O)[C@H](Cc1cccc2ccccc12)NC(=O)CN1CCOCC1` [Example 103, N-{N-[N-Morpholinoacetyl-3-(1-naphthyl)-L-alanyl]-3-(4-thiazolyl)-L-alanyl}-cyclostatin-propylamide], the “Inhibitory Activity (%)” value is on record as 98.6%.

With `CCCCNC(=O)C[C@H](O)[C@H](CC1CCCCC1)NC(=O)[C@H](Cc1cscn1)NC(=O)[C@H](Cc1cccc2ccccc12)NC(=O)CN1CCOCC1` [Example 104, N-{N-[N-Morpholinoacetyl-3-(1-naphthyl)-L-alanyl]-3-(4-thiazolyl)-L-alanyl}-cyclostatin-butylamide], the “Inhibitory Activity (%)” value is 98.6%.

With `CC(C)CNC(=O)C[C@H](O)[C@H](CC1CCCCC1)NC(=O)[C@H](Cc1cscn1)NC(=O)[C@H](Cc1cccc2ccccc12)NC(=O)CN1CCOCC1` [Example 105, N-{N-[N-Morpholinoacetyl-3-(1-naphthyl)-L-alanyl]-3-(4-thiazolyl)-L-alanyl}-cyclostatin-isobutylamide], the “Inhibitory Activity (%)” value turned out to be 98.0%.

As to `CC(C)CN(CC(C)C)C(=O)C[C@H](O)[C@H](CC1CCCCC1)NC(=O)[C@H](Cc1cscn1)NC(=O)[C@H](Cc1cccc2ccccc12)NC(=O)CN1CCOCC1` [Example 106], the “Inhibitory Activity (%)” value came out at 98.2%.

For the compound `CCCCCNC(=O)C[C@H](O)[C@H](CC1CCCCC1)NC(=O)[C@H](Cc1cscn1)NC(=O)[C@H](Cc1cccc2ccccc12)NC(=O)CN1CCOCC1` [Example 107, N-{N-[N-Morpholinoacetyl-3-(1-naphthyl)-L-alanyl]-3-(4-thiazolyl)-L-alanyl}-cyclostatin-pentylamide], the “Inhibitory Activity (%)” value amounted to 98.4%.
